Assay results published in US7238701B2, “Substituted tetrahydrobenzothienopyrimidinamine compounds useful for treating hyper-proliferative disorders” (Bayer Pharmaceuticals Corporation, priority 2003, dated 2007).

What was measured:
[1] = system: A431cells (human epidermoid carcinoma); test: In vitro tumor cell proliferation assay (Cell Titer-Glo luminescent cell viability), A431 cells; type: cell-based; conditions: A-431, 72 h, 72 hours drug exposure, 10% Fetal Bovine Serum, ATP luminescence readout, read-out: IC50 (50% inhibition of cell proliferation)
Summary of the method: (§1)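 ATP luminescence (CellTiter-Glo) measured proliferation after 72 h compound exposure at 37 °C, giving IC50 values. Serial dilutions spanning 64 pM–100 μM in 0.1% DMSO were applied one day after plating 2.5×10^3 cells/well in RPMI plus 10% fetal bovine serum.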

[2] = system: BT474 (human breast carcinoma); test: In vitro tumor cell proliferation assay (Cell Titer-Glo luminescent cell viability), BT474 cells; type: cell-based; conditions: BT-474, 72 hours drug exposure, 10% Fetal Bovine Serum, ATP luminescence readout, read-out: IC50 (50% inhibition of cell proliferation)
Summary of the method: as §1

Compound	IC50 [1] [µM]	IC50 [2] [µM]
CS(=O)(=O)CCNCCC1CCc2c(sc3ncnc(Nc4ccc5c(cnn5Cc5ccccc5)c4)c23)C1 (centres unmarked) [Example 210, N-(1-benzyl-1H-indazol-5-yl)-7-(2-{[2-(methylsulfonyl)ethyl]amino}ethyl)-5,6,7,8-tetrahydro[1]benzothieno[2,3-d]pyrimidin-4-amine]	< 5	< 5
c1ccc(Cn2ncc3cc(Nc4ncnc5sc6c(c45)CCC(CCNCCN4CCCC4)C6)ccc32)cc1 (centres unmarked) [Example 211, N-(1-benzyl-1H-indazol-5-yl)-7-{2-[(2-pyrrolidin-1-ylethyl)amino]ethyl}-5,6,7,8-tetrahydro[1]benzothieno[2,3-d]pyrimidin-4-amine]	< 5	< 5
CN(C)CCCCNCCC1CCc2c(sc3ncnc(Nc4ccc5c(cnn5Cc5ccccc5)c4)c23)C1 (centres unmarked) [Example 212, N′-(2-{4-[(1-benzyl-1H-indazol-5-yl)amino]-5,6,7,8-tetrahydro[1]benzothieno[2,3-d]pyrimidin-7-yl}ethyl)-N,N-dimethylbutane-1,4-diamine]	< 5	< 5
CCOC(=O)CC1CCc2c(sc3ncnc(Nc4ccc(Oc5ccc(C)nc5)c(C)c4)c23)C1 (centres unmarked) [Example 213, ethyl [4-({3-methyl-4-[(6-methylpyridin-3-yl)oxy]phenyl}amino)-5,6,7,8-tetrahydro[1]benzothieno[2,3-d]pyrimidin-7-yl]acetate]	< 50	< 50
Cc1ccc(Oc2ccc(Nc3ncnc4sc5c(c34)CCC(CCO)C5)cc2C)cn1 (centres unmarked) [Example 214, 2-{4-[3-Methyl-4-(6-methyl-pyridin-3-yloxy)-phenylamino]-5,6,7,8-tetrahydro-benzo[4,5]thieno[2,3-d]pyrimidin-7-yl}-ethanol]	< 50	< 5
Cc1ccc(Oc2ccc(Nc3ncnc4sc5c(c34)CCC(CCOS(C)(=O)=O)C5)cc2C)cn1 (centres unmarked) [Example 215, 2-[4-({3-methyl-4-[(6-methylpyridin-3-yl)oxy]phenyl}amino)-5,6,7,8-tetrahydro[1]benzothieno[2,3-d]pyrimidin-7-yl]ethyl methanesulfonate]	< 50	< 5
COCCNCCC1CCc2c(sc3ncnc(Nc4ccc(Oc5ccc(C)nc5)c(C)c4)c23)C1 (centres unmarked) [Example 216, 7-{2-[(2-methoxyethyl)amino]ethyl}-N-{3-methyl-4-[(6-methylpyridin-3-yl)oxy]phenyl}-5,6,7,8-tetrahydro[1]benzothieno[2,3-d]pyrimidin-4-amine]	< 50	< 5
Cc1ccc(Oc2ccc(Nc3ncnc4sc5c(c34)CCC(CCNCCO)C5)cc2C)cn1 (centres unmarked) [Example 217, 2-({2-[4-({3-methyl-4-[(6-methylpyridin-3-yl)oxy]phenyl}amino)-5,6,7,8-tetrahydro[1]benzothieno[2,3-d]pyrimidin-7-yl]ethyl}amino)ethanol]	< 50	< 5
COCCN(C)CCC1CCc2c(sc3ncnc(Nc4ccc(Oc5ccc(C)nc5)c(C)c4)c23)C1 (centres unmarked) [Example 218, 7-{2-[(2-methoxyethyl)(methyl)amino]ethyl}-N-{3-methyl-4-[(6-methylpyridin-3-yl)oxy]phenyl}-5,6,7,8-tetrahydro[1]benzothieno[2,3-d]pyrimidin-4-amine]	< 50	< 5
Cc1ccc(Oc2ccc(Nc3ncnc4sc5c(c34)CCC(CCNCCS(C)(=O)=O)C5)cc2C)cn1 (centres unmarked) [Example 219, N-{3-methyl-4-[(6-methylpyridin-3-yl)oxy]phenyl}-7-(2-{[2-(methylsulfonyl)ethyl]amino}ethyl)-5,6,7,8-tetrahydro[1]benzothieno[2,3-d]pyrimidin-4-amine]	< 50	< 5
Cc1ccc(Oc2ccc(Nc3ncnc4sc5c(c34)CCC(CCNCCN3CCOCC3)C5)cc2C)cn1 (centres unmarked) [Example 220, N-{3-methyl-4-[(6-methylpyridin-3-yl)oxy]phenyl}-7-{2-[(2-morpholin-4-ylethyl)amino]ethyl}-5,6,7,8-tetrahydro[1]benzothieno[2,3-d]pyrimidin-4-amine]	< 50	< 5
Cc1ccc(Oc2ccc(Nc3ncnc4sc5c(c34)CCC(CCN3CCCC3)C5)cc2C)cn1 (centres unmarked) [Example 221, N-{3-methyl-4-[(6-methylpyridin-3-yl)oxy]phenyl}-7-(2-pyrrolidin-1-ylethyl)-5,6,7,8-tetrahydro[1]benzothieno[2,3-d]pyrimidin-4-amine]	< 5	< 5
Cc1ccc(Oc2ccc(Nc3ncnc4sc5c(c34)CCC(CCN(C)CCO)C5)cc2C)cn1 (centres unmarked) [Example 222, 2-(methyl{2-(4-({3-methyl-4-[(6-methylpyridin-3-yl)oxy]phenyl}amino)-5,6,7,8-tetrahydro[1]benzothieno[2,3-d]pyrimidin-7-yl]ethyl}amino)ethanol]	< 5	< 5
Cc1ccc(Oc2ccc(Nc3ncnc4sc5c(c34)CCC(CCN3CCC(N(C)C)C3)C5)cc2C)cn1 (centres unmarked) [Example 223, 7-{2-[3-(dimethylamino)pyrrolidin-1-yl]ethyl}-N-{3-methyl-4-[(6-methylpyridin-3-yl)oxy]phenyl}-5,6,7,8-tetrahydro[1]benzothieno[2,3-d]pyrimidin-4-amine]	< 5	< 5
Cc1ccc(Oc2ccc(Nc3ncnc4sc5c(c34)CCC(CCN3CCN(C)CC3)C5)cc2C)cn1 (centres unmarked) [Example 224, N-{3-methyl-4-[(6-methylpyridin-3-yl)oxy]phenyl}-7-[2-(4-methylpiperazin-1-yl)ethyl]-5,6,7,8-tetrahydro[1]benzothieno[2,3-d]pyrimidin-4-amine]	< 5	< 5
Cc1ccc(Oc2ccc(Nc3ncnc4sc5c(c34)CCC(CCN3CCOCC3)C5)cc2C)cn1 (centres unmarked) [Example 225, N-{3-methyl-4-[(6-methylpyridin-3-yl)oxy]phenyl}-7-(2-morpholin-4-ylethyl)-5,6,7,8-tetrahydro[1]benzothieno[2,3-d]pyrimidin-4-amine]	< 50	< 5
Cc1ccc(Oc2ccc(Nc3ncnc4sc5c(c34)CCC(CCN(C)C)C5)cc2C)cn1 (centres unmarked) [Example 226]	< 50	< 5
CN1CCN(CCC2CCc3c(sc4ncnc(Nc5ccc6c(cnn6Cc6ccccc6)c5)c34)C2)CC1 (centres unmarked) [Example 227, N-(1-benzyl-1H-indazol-5-yl)-7-[2-(4-methylpiperazin-1-yl)ethyl]-5,6,7,8-tetrahydro[1]benzothieno[2,3-d]pyrimidin-4-amine]	< 50	< 5
CN(C)CCC1CCc2c(sc3ncnc(Nc4ccc5c(cnn5Cc5ccccc5)c4)c23)C1 (centres unmarked) [Example 228, N-(1-benzyl-1H-indazol-5-yl)-7-[2-(dimethylamino)ethyl]-5,6,7,8-tetrahydro[1]benzothieno[2,3-d]pyrimidin-4-amine]	< 50	< 5
CNCCC1CCc2c(sc3ncnc(Nc4ccc5c(cnn5Cc5ccccc5)c4)c23)C1 (centres unmarked) [Example 229, N-(1-benzyl-1H-indazol-5-yl)-7-[2-(methylamino)ethyl]-5,6,7,8-tetrahydro[1]benzothieno[2,3-d]pyrimidin-4-amine]	< 50	< 5
Cc1ccc(Oc2ccc(Nc3ncnc4sc5c(c34)CCC(CCNCCN(C)C)C5)cc2C)cn1 (centres unmarked) [Example 230, N,N-dimethyl-N′-{2-[4-({3-methyl-4-[(6-methylpyridin-3-yl)oxy]phenyl}amino)-5,6,7,8-tetrahydro[1]benzothieno[2,3-d]pyrimidin-7-yl]ethyl}ethane-1,2-diamine]	< 5	< 5
Cc1ccc(Oc2ccc(Nc3ncnc4sc5c(c34)CCC(CCN(CCO)CCO)C5)cc2C)cn1 (centres unmarked) [Example 231, 2,2′-({2-[4-({3-methyl-4-[(6-methylpyridin-3-yl)oxy]phenyl}amino)-5,6,7,8-tetrahydro[1]benzothieno[2,3-d]pyrimidin-7-yl]ethyl}imino)diethanol]	< 50	< 5
CNCCC1CCc2c(sc3ncnc(Nc4ccc(Oc5ccc(C)nc5)c(C)c4)c23)C1 (centres unmarked) [Example 232, 7-[2-(methylamino)ethyl]-N-{3-methyl-4-[(6-methylpyridin-3-yl)oxy]phenyl}-5,6,7,8-tetrahydro[1]benzothieno[2,3-d]pyrimidin-4-amine]	< 50	< 5
Cc1ccc(Oc2ccc(Nc3ncnc4sc5c(c34)CCC(CCN3CCC(O)C3)C5)cc2C)cn1 (centres unmarked) [Example 233, 1-{2-[4-({3-methyl-4-[(6-methylpyridin-3-yl)oxy]phenyl}amino)-5,6,7,8-tetrahydro[1]benzothieno[2,3-d]pyrimidin-7-yl]ethyl}pyrrolidin-3-ol]	< 50	< 5
Cc1ccc(Oc2ccc(Nc3ncnc4sc5c(c34)CCC(CCN3CCCC3C)C5)cc2C)cn1 (centres unmarked) [Example 234, N-{3-methyl-4-[(6-methylpyridin-3-yl)oxy]phenyl}-7-[2-(2-methylpyrrolidin-1-yl)ethyl]-5,6,7,8-tetrahydro[1]benzothieno[2,3-d]pyrimidin-4-amine]	< 50	< 5
Cc1ccc(Oc2ccc(Nc3ncnc4sc5c(c34)CCC(CCN3C(C)CCC3C)C5)cc2C)cn1 (centres unmarked) [Example 235]	< 50	< 5
Cc1ccc(Oc2ccc(Nc3ncnc4sc5c(c34)CCC(CCN3CCCCC3)C5)cc2C)cn1 (centres unmarked) [Example 236, N-{3-methyl-4-[(6-methylpyridin-3-yl)oxy]phenyl}-7-(2-piperidin-1-ylethyl)-5,6,7,8-tetrahydro[1]benzothieno[2,3-d]pyrimidin-4-amine]	< 50	< 5
OC1CCN(CCC2CCc3c(sc4ncnc(Nc5ccc6c(cnn6Cc6ccccc6)c5)c34)C2)C1 (centres unmarked) [Example 237, 1-(2-{4-[(1-benzyl-1H-indazol-5-yl)amino]-5,6,7,8-tetrahydro[1]benzothieno[2,3-d]pyrimidin-7-yl}ethyl)pyrrolidin-3-ol]	< 50	< 5
